From patent US20250262140A1, “Compositions and Method of Use for Hair Straightening and Shaping” (Olaplex, Inc., priority 2020, published 2025)

Legend:
[1] = Peptide stability to shampoo washes, fluorescence of dye-labeled peptide on hair (Example 9); assay type: binding; details: Alexa Fluor 647 labeled peptide 1 mg/mL; virgin (FIG. 9a) and bleached (FIG. 9b) hair
Procedure: To separate solutions of 500 μL of DI water was added 1 mg of one of the peptides corresponding to SEQ ID NOs. 1 and 2-17. Then, a solution of 84 mg of sodium bicarbonate in 1 mL of DI water was prepared, and 12 μL of this solution was added to each peptide solution. Immediately prior to conjugation, 5 mg of Alexa Fluor 647 NHS ester (Thermo Fisher Scientific) dye molecule was dissolved in 500 μL of DMSO, and 15 μL of this solution was added to each peptide solution. After the dye was added, the solution was incubated at 4° C. in the dark for 16 hours. Removal of unbound dye molecules was carried out using a PD MiniTrap G-10 column (Cytiva) using DI water as the elutant. Fractions containing dye-labeled peptide were pooled and diluted to final peptide concentrations of 1 mg/mL.
Hair samples were then treated according to Example 8, except that during treatment with peptide, hair was treated with a single dye-labeled peptide corresponding to SEQ ID NOs. 1 and 2-17. For each set of conditions, three separate straightening protocols were performed.
Fluorescence images were collected on a EVOS M7000 Imaging System (Thermo Fisher Scientific) using a Cy5 filter set. Images were collected using a 0.1 second exposure time at a light intensity of 0.0023. Following fluorescence measurements, hair samples were then washed with shampoo an additional 9 times, towel dried, and fluorescently imaged again.
Image files were processed as 16-bit grayscale images using ImageJ software. […] The average and standard deviation of fluorescence intensity in the remaining regions (corresponding to hair strands containing fluorescently labeled peptides) was then directly calculated.

[2] = Hair straightening, treatment with lye and hydrogen peroxide (Example 2); details: 1 mg/mL peptide; after 10 shampoo wash/dry cycles
Procedure: (§1) Tresses of curly Brazilian hair were cut into ½ inch wide samples. The tresses were then washed with shampoo and allowed to air dry. The hair then soaked in a solution of sodium hydroxide pH 12 for 30 minutes at room temperature. After this time, the hair was rinsed with DI water. The hair was then blow dried under medium heat while gently pulling the hair into a straight shape. A flat iron was then applied to the hair at 400° F.
Six individual solutions of each designed keratin binding peptide corresponding to SEQ ID NO. 3 through SEQ ID NO. 8 were dissolved in DI water at a concentration of 1 mg/ml and then applied to individual hair samples until the hair sample was saturated, and the hair sample was allowed to sit for 30 minutes at room temperature. The hair sample was then blow dried under medium heat while gently pulling the hair into a straight shape. A flat iron was then applied to the hair at 400° F.
L'Oreal® Oreor Creme 40 volume developer was then applied to the hair samples until the hair sample was saturated, and then allowed to sit for 30 minutes at room temperature. The hair samples were then rinsed with DI water.
(§2) Each straightened hair sample was washed with shampoo and allowed to air dry, and this washing/drying procedure was repeated a total of 10 times. […] There was little identifiable difference in efficacy among the six peptides, although peptides corresponding to SEQ ID NO. 5, SEQ ID NO. 6, SEQ ID NO. 7 and SEQ ID NO. […] 3 and SEQ ID NO.4.

[3] = Hair straightening, treatment with heat only (Example 1); details: 1 mg/mL peptide; after 10 shampoo wash/dry cycles
Procedure: Tresses of curly Brazilian hair were cut into ½ inch wide samples. The tresses were then washed with shampoo and allowed to air dry. The hair was straightened using a flat iron at 460° F. Once the hair was visibly straight, the hair was wrapped tightly in aluminum foil. A flat iron was applied to a section of the wrapped hair by holding the flat iron to the section for 10 seconds. This process was repeated until all sections of the hair were flat ironed.
Six individual solutions of each peptide corresponding to SEQ ID NO. 3 through SEQ ID NO 8 were dissolved in de-ionized (“DI”) water at a concentration of about 1 milligram per milliliter (“mg/mL”) and then applied to separate hair samples until the hair sample was saturated. The saturated hair was allowed to sit for 1 hour at 37° C. The hair was then blow dried under medium heat while gently pulling the hair into a straight shape. A flat iron was then applied to the hair at 400° F.
as §2, with “The” for “Each”, “hair” for “hair sample”, “six designed keratin binding” for “six”, “5” for “5,”

[4] = Hair straightening, treatment with lye and glucose oxidase (Example 3); details: 1 mg/mL peptide, 30 minutes; NaOH pH 12, glucose oxidase/glucose fixation; after 10 shampoo wash/dry cycles; only slight waves remained
Procedure: as §1
(§3) A solution of the peptide corresponding to SEQ ID. NO. 8 in DI water at a concentration of 1 mg/mL was then applied to hair sample until the hair sample was saturated, and the hair was allowed to sit for 30 minutes at room temperature. The hair was then blow dried under medium heat while gently pulling the hair into a straight shape. A flat iron was then applied to the hair at 400° F.
(§4) A solution of glucose oxidase (2 mg/mL) and glucose (18 mg/mL) in 50 mM sodium phosphate buffer pH 5.8 was then applied to the hair until the hair was saturated, and the hair was allowed to sit for 30 minutes at room temperature. The hair was then rinsed with DI water.
(§5) The straightened hair was washed with shampoo and allowed to air dry, and this washing/drying procedure was repeated a total of 10 times.

[5] = Hair straightening, treatment with glutathione reductase and hydrogen peroxide (Example 4); details: 1 mg/mL peptide, 30 minutes; glutathione reductase/glutathione/NADP relaxation, 40 volume developer fixation; after 10 shampoo wash/dry cycles; only slight waves remained
Procedure: Tresses of curly Brazilian hair were cut into ½ inch wide samples. The tresses were then washed with shampoo and allowed to air dry. The hair then soaked in a solution of glutathione reductase (0.01 mg/mL), glutathione (100 mg/mL), and nicotinamide adenine dinucleotide phosphate (0.083 mg/mL) in 50 mM sodium phosphate buffer pH 8 for 30 minutes at room temperature. After this time, the hair was rinsed with DI water. The hair was then blow dried under medium heat while gently pulling the hair into a straight shape. A flat iron was then applied to the hair at 400° F.
as §3, with “of a” for “of the”, “SEQ ID NO.8” for “SEQ ID. NO. 8”, “to har” for “to hair sample”, “hair” for “hair sample”
L'Oreal® Oreor Creme 40 volume developer was then applied to the hair until the hair was saturated, and the hair was allowed to sit for 30 minutes at room temperature. The hair was then rinsed with DI water.
as §5

[6] = Hair straightening, treatment with ammonium thioglycolate and hydrogen peroxide (Example 6); details: 1 mg/mL peptide, 30 minutes; ammonium thioglycolate 10% v/v pH 10, hydrogen peroxide 2% v/v; after 30 shampoo wash/dry cycles; treated samples with and without peptide
Procedure: Tresses of curly Brazilian hair were cut into ½ inch wide samples. The tresses were then washed with shampoo and allowed to air dry. The hair then soaked in a solution of ammonium thioglycolate (10% v/v) in sodium hydroxide pH 10 for 30 minutes at room temperature. After this time, the hair was rinsed with DI water. The hair was then blow dried under medium heat while gently pulling the hair into a straight shape. A flat iron was then applied to the hair at 400° F.
as §3, with “In some samples, a solution” for “A solution”, “SEQ ID NO.8” for “SEQ ID. NO. 8”, “hair” for “hair sample”, “temperature. In these samples, the” for “temperature. The”
For all hair samples, a solution of hydrogen peroxide (2% v/v) was then applied to the hair until the hair was saturated, and the hair was allowed to sit for 30 minutes at room temperature. The hair was then rinsed with DI water.
The straightened hair was washed with shampoo and allowed to air dry, and this washing/drying procedure was repeated a total of 30 times.

[7] = Hair straightening, treatment with glutathione and glucose oxidase (Example 5); details: 1 mg/mL peptide, 30 minutes; glutathione pH 9 relaxation, glucose oxidase/glucose fixation; after 10 shampoo wash/dry cycles; only slight waves remained
Procedure: Tresses of curly Brazilian hair were cut into ½ inch wide samples. The tresses were then washed with shampoo and allowed to air dry. The hair then soaked in a solution of glutathione (100 mg/mL) in sodium hydroxide pH 9 for 30 minutes at room temperature. After this time, the hair was rinsed with DI water. The hair was then blow dried under medium heat while gently pulling the hair into a straight shape. A flat iron was then applied to the hair at 400° F.
as §3, with “ID NO.8” for “ID. NO. 8”, “hair” for “hair sample”
as §4, §5

Row | Substance | change in fluorescence intensity between 1 and 10 shampoos (retention of peptide in hair) [1] | straightening efficiency compared among the six peptides (vs SEQ ID NO. 3 and SEQ ID NO. 4) [2] | straightening efficiency compared among the six peptides (vs SEQ ID NO. 3 and SEQ ID NO. 4) [3] | also measured
1 | SEQ ID NO. 4: Q13C substitution relative to SEQ ID NO. 1 plus 3 additional cysteine substitutions (QGQVCHLQCAFSCYKKCELFPK) | no statistically significant decrease | – | – | –
2 | SEQ ID NO. 5: designed keratin binding peptide with cysteine substitutions relative to SEQ ID NO: 1 (QGQCCHLQCCFSQYKKCELFPKC) | – | slightly higher straightening efficiency | slightly higher straightening efficiency | –
3 | SEQ ID NO. 6: cysteine-substituted peptide with Q13C; SEQ ID NO. 14 is the same without Q13C (CGQCCHLQCCFCCYKKCELFPKC) [cysteine-substituted peptide with Q13C; 14 is the same without Q13C] | no statistically significant decrease | slightly higher straightening efficiency | slightly higher straightening efficiency | –
4 | SEQ ID NO. 7: cysteine-substituted peptide with Q13C; SEQ ID NO. 15 is the same without Q13C (CGCCCHLCCCFCCYKKCELFPKC) [cysteine-substituted peptide with Q13C; 15 is the same without Q13C] | no statistically significant decrease | slightly higher straightening efficiency | slightly higher straightening efficiency | –
5 | SEQ ID NO. 8: cysteine-substituted peptide with Q13C; SEQ ID NO. 16 is the same without Q13C (CGQVCHLQCAFSCYKKCELFPKC) [cysteine-substituted peptide with Q13C; 16 is the same without Q13C] | no statistically significant decrease | slightly higher straightening efficiency | slightly higher straightening efficiency | hair straightening compared to untreated samples [4]: significantly straightened; hair straightening compared to untreated samples [5]: significantly straightened; hair straightening compared to an untreated sample [6]: significantly straightened; hair straightening compared to untreated samples [7]: significantly straightened
6 | SEQ ID NO. 11: Q13C substitution relative to SEQ ID NO. 1 plus 2 additional cysteine substitutions (QGQVQHLQCAFSCYKKCELFPK) | no statistically significant decrease | – | – | –
7 | SEQ ID NO. 14: differs from SEQ ID NO. 6 in lacking the Q13C substitution (CGQCCHLQCCFCQYKKCELFPKC) | significant decrease | – | – | –
8 | SEQ ID NO. 15: differs from SEQ ID NO. 7 in lacking Q13C; 10 cysteine substitutions, unique Q3C and/or Q8C (CGCCCHLCCCFCQYKKCELFPKC) | strong retention | – | – | –
9 | SEQ ID NO. 16: differs from SEQ ID NO. 8 in lacking the Q13C substitution (CGQVCHLQCAFSQYKKCELFPKC) | significant decrease | – | – | –
